The values below are quoted from earlier work in patent US9585842B2, “Sustained release guanfacine HCL formulation” (SALMON PHARMA GMBH, priority 2013, dated 2017).

For the series the following is noted: low pH versus higher pH values.

Counter-ions that a name gives are not always drawn.

With `N=C(N)NC(=O)Cc1c(Cl)cccc1Cl` [Guanfacine hydrochloride], the pH dependent solubility entry is recorded as “more soluble at low pH values than higher pH values”.
